In ChEMBL document CHEMBL1150206, “Verrucoside, a new cytotoxic pregnane glycoside from a gorgonian Eunicella verrucosa” (J Nat Prod, 1991):
≈ marks a conversion by molar mass, not a printed value.

Assays:
Format in all cases: functional, cell-based
[1] = tested on: P388; experiment: Cytotoxicity against mouse P388 cells
[2] = tested on: HT-29; experiment: Cytotoxicity against human HT-29 cells
[3] = tested on: A549; experiment: Cytotoxicity against human A549 cells

SMILES: C=C[C@H]1CC[C@H]2[C@@H]3CC[C@@H]4[C@@H](O[C@@H]5O[C@@H](C)[C@@H](O)[C@@H](OC)[C@@H]5OC(C)=O)[C@@H](O)CC[C@]4(C)[C@H]3CC[C@]12C [VERRUCOSIDE]
- IC50 [1]: 5.9 µg/mL (≈ 11.3 µM)
- IC50 [2]: 6.3 µg/mL (≈ 12.1 µM)
- IC50 [3]: 7.2 µg/mL (≈ 13.8 µM)
